Here are results for four compounds from US20150238394A1, “Triggerable Compositions For Two-Stage, Controlled Release of Proactive Chemistry Using Aldehydes” (Kimberly-Clark Worldwide, Inc., priority 2014, published 2015).

This data set can be described thus: Volatility and smell of non-salt acetals, neat and embedded in polymer films brushed on polyethylene film and air-dried. Type of data set: physicochemical. Particulars: embedded in PVP/VA, Eudragit E-100 and Eudragit S-100, brushed on polyethylene films, air-dried. From the text: 1. Acetal of citronellal with ethanol and acetal of vanillin with ethanol were custom-synthesized. Their structures are shown below. […] The acetals were embedded in PVP/VA, Eudragit E-100, and Eudragit S-100 by simply dissolving the acetals in the solutions of those polymers. The solutions were then brushed on polyethylene films and air-dried. The parent aldehydes were also embedded in the same ratio in those polymers. Strong smells of both parent aldehydes and acetals could be nasally detected after drying. Those non-salt based acetals cannot effectively reduce the volatility of aldehyde-based fragrances and are not good pro-actives for stabilizing those fragrances.
Turning to `CCOC(CC(C)CCC=C(C)C)OCC` (stereo not shown) [Acetal of citronellal with ethanol], the “smell nasally detected after drying” value is listed as “Strong smells”.

In the case of `CCOC(OCC)c1ccc(O)c(OC)c1` [acetal of vanillin with ethanol], the “smell nasally detected after drying” value is “Strong smells”.

As to `CC(C)=CCCC(C)CC=O` (stereo not shown) [citronellal], the “smell nasally detected after drying” value is “Strong smells”.

Take `COc1cc(C=O)ccc1O` [vanillin]: the “smell nasally detected after drying” value is “Strong smells”.
